{
  "source": "patent EP0987268B1",
  "about": "“Pharmaceutical agents containing epothilone A-N-oxide and/or epothilone B-N-oxide” (Gesellschaft für Biotechnologische Forschung mbH (GBF), priority 1998, dated 2000)",
  "assay_type_in_all_cases": "cell-based",
  "key": {"[1]": {"system": "human lung carcinoma A-549 (DSM ACC 107)", "assay": "Cytotoxic activity, A-549 cells", "conditions": "A549, cell line human lung carcinoma A-549 (DSM ACC 107)"}, "[2]": {"system": "human cervix carcinoma KB 3.1 (DSM ACC 158)", "assay": "Cytotoxic activity, KB 3.1 cells", "conditions": "KB 3-1, cell line human cervix carcinoma KB 3.1 (DSM ACC 158)"}, "[3]": {"system": "mouse fibroblast L929 (ATCC CCL1)", "assay": "Cytotoxic activity, L929 cells", "conditions": "cell line mouse fibroblast L929 (ATCC CCL1)"}},
  "data": [
    {"smiles": "C/C(=C\\c1csc(C)[n+]1[O-])[C@@H]1C[C@@H]2O[C@]2(C)CCC[C@H](C)[C@H](O)[C@@H](C)C(=O)C(C)(C)[C@@H](O)CC(=O)O1", "note": "[epothilone B-N-oxide]", "values": [
      {"measurement": "IC50", "setting": "[1]", "value": 1.5, "unit": "nM"},
      {"measurement": "IC50", "setting": "[2]", "value": 2, "unit": "nM"},
      {"measurement": "IC50", "setting": "[3]", "value": 4, "unit": "nM"}
    ]}
  ]
}
